# In PubChem BioAssay (NCI):
#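 Exposure lasted 48 hours, with cells grown in 96-well plates and compounds tested at five concentrations. GI50 is the concentration that inhibits growth by half. TGI: total growth inhibition.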
# Experiments:
# Assay in all cases: inhibition of tumour cell growth, NCI panel, 48 h
# [1] = test system: PC-3 prostate
# [2] = test system: NCI-H460 lung
# [3] = test system: DU-145 prostate
# [4] = test system: SK-OV-3 ovarian
# [5] = test system: RPMI-8226 leukemia
# [6] = test system: BT-549 breast
# [7] = test system: HL-60(TB) leukemia
# [8] = test system: 786-0 renal
# [9] = test system: MOLT-4 leukemia
# [10] = test system: UACC-62 melanoma
# [11] = test system: CCRF-CEM leukemia
# [12] = test system: HOP-62 NSCLC
# [13] = test system: KM12 colon
# [14] = test system: IGROV1 ovarian
# [15] = test system: HS 578T breast
# [16] = test system: COLO 205 colon
# [17] = test system: CAKI-1 renal
# [18] = test system: EKVX NSCLC
# [19] = test system: A498 renal
# [20] = test system: OVCAR-8 ovarian
# [21] = test system: MALME-3M melanoma
# [22] = test system: NCI-H23 lung
# [23] = test system: MCF7 breast
# [24] = test system: SF-268 CNS
# [25] = test system: NCI-H522 lung
# [26] = test system: HCT-15 colon
# [27] = test system: SF-295 CNS
# [28] = test system: HCT-116 colon
# [29] = test system: SK-MEL-5 melanoma
# [30] = test system: K-562 leukemia
# [31] = test system: UO-31 renal
# [32] = test system: OVCAR-3 ovarian
# [33] = test system: OVCAR-4 ovarian
# [34] = test system: A549 NSCLC
# [35] = test system: OVCAR-5 ovarian
# [36] = test system: HOP-92 NSCLC
# [37] = test system: SN12C renal
# [38] = test system: U251 CNS
# [39] = test system: T-47D breast
# [40] = test system: HCC-2998 colon
# [41] = test system: RXF 393 renal
# [42] = test system: SW-620 colon
# [43] = test system: SF-539 CNS
# [44] = test system: SK-MEL-2 melanoma
# [45] = test system: M14 melanoma
# [46] = test system: MDA-MB-231 breast
# [47] = test system: LOX IMVI melanoma
# [48] = test system: HT29 colon
# [49] = test system: SR leukemia
# [50] = test system: SNB-19 CNS
# [51] = test system: TK-10 renal
# [52] = test system: NCI-H226 lung
# [53] = test system: UACC-257 melanoma
# [54] = test system: SK-MEL-28 melanoma
# [55] = test system: NCI/ADR-RES ovarian
smiles,measurement,setting,value
O=C(O)CCCn1c(SCc2c(Cl)cccc2Cl)nc2ccsc2c1=O,GI50,[1],354 nM
same,TGI,[1],> 100000 nM
same,GI50,[2],419 nM
same,TGI,[2],> 100000 nM
same,GI50,[3],479 nM
same,TGI,[3],> 100000 nM
same,GI50,[4],710 nM
same,TGI,[4],> 100000 nM
same,GI50,[5],489 nM
same,TGI,[5],> 100000 nM
same,GI50,[6],459 nM
same,TGI,[6],> 100000 nM
same,GI50,[7],284 nM
same,TGI,[7],12000 nM
same,GI50,[8],399 nM
same,TGI,[8],32900 nM
same,GI50,[9],440 nM
same,TGI,[9],> 100000 nM
same,GI50,[10],185 nM
same,TGI,[10],34200 nM
same,GI50,[11],377 nM
same,TGI,[11],> 100000 nM
same,GI50,[12],819 nM
same,TGI,[12],> 100000 nM
same,GI50,[13],321 nM
same,TGI,[13],> 100000 nM
same,GI50,[14],1350 nM
same,TGI,[14],> 100000 nM
same,GI50,[15],434 nM
same,TGI,[15],> 100000 nM
same,GI50,[16],384 nM
same,TGI,[16],10800 nM
same,GI50,[17],452 nM
same,TGI,[17],> 100000 nM
same,GI50,[18],4520 nM
same,TGI,[18],> 100000 nM
same,GI50,[19],311 nM
same,TGI,[19],> 100000 nM
same,GI50,[20],828 nM
same,TGI,[20],> 100000 nM
same,GI50,[21],336 nM
same,TGI,[21],> 100000 nM
same,GI50,[22],587 nM
same,TGI,[22],> 100000 nM
same,GI50,[23],263 nM
same,TGI,[23],> 100000 nM
same,GI50,[24],830 nM
same,TGI,[24],> 100000 nM
same,GI50,[25],205 nM
same,TGI,[25],32200 nM
same,GI50,[26],321 nM
same,TGI,[26],> 100000 nM
same,GI50,[27],376 nM
same,TGI,[27],> 100000 nM
same,GI50,[28],432 nM
same,TGI,[28],> 100000 nM
same,GI50,[29],283 nM
same,TGI,[29],57300 nM
same,GI50,[30],272 nM
same,TGI,[30],> 100000 nM
same,GI50,[31],478 nM
same,TGI,[31],> 100000 nM
same,GI50,[32],206 nM
same,TGI,[32],1620 nM
same,GI50,[33],7990 nM
same,TGI,[33],> 100000 nM
same,GI50,[34],715 nM
same,TGI,[34],> 100000 nM
same,GI50,[35],5740 nM
same,TGI,[35],> 100000 nM
same,GI50,[36],236 nM
same,TGI,[36],> 100000 nM
same,GI50,[37],661 nM
same,TGI,[37],> 100000 nM
same,GI50,[38],529 nM
same,TGI,[38],> 100000 nM
same,GI50,[39],482 nM
same,TGI,[39],> 100000 nM
same,GI50,[40],1850 nM
same,TGI,[40],23200 nM
same,GI50,[41],306 nM
same,TGI,[41],2780 nM
same,GI50,[42],407 nM
same,TGI,[42],> 100000 nM
same,GI50,[43],260 nM
same,TGI,[43],943 nM
same,GI50,[44],386 nM
same,TGI,[44],> 100000 nM
same,GI50,[45],366 nM
same,TGI,[45],> 100000 nM
same,GI50,[46],774 nM
same,TGI,[46],50900 nM
same,GI50,[47],509 nM
same,TGI,[47],> 100000 nM
same,GI50,[48],448 nM
same,TGI,[48],> 100000 nM
same,GI50,[49],316 nM
same,TGI,[49],> 100000 nM
same,GI50,[50],517 nM
same,TGI,[50],> 100000 nM
same,GI50,[51],26200 nM
same,TGI,[51],> 100000 nM
same,GI50,[52],685 nM
same,TGI,[52],> 100000 nM
same,GI50,[53],58700 nM
same,TGI,[53],> 100000 nM
same,GI50,[54],698 nM
same,TGI,[54],> 100000 nM
same,GI50,[55],276 nM
same,TGI,[55],> 100000 nM
